In patent EP4549575A1 (priority 2023, dated 2025):
Entries after “also recorded” stand apart in the source; their conditions may differ. Square brackets hold non-standard residues; d marks the D form. Ends that are not written are not given here. Peptide text beside a SMILES is read from it. βAla = NCCC(=O)O

Assays:
[1] = Chemical-physical properties (isoelectric point, net charge, solubility in water); type: physicochemical; conditions: for net charge: at pH 7
pronase [2] = experiment: Stability towards proteolysis (pronase, LC-MS); type: in vitro ADME, Streptomyces griseus; conditions: peptide 200 µM, protease 5 µg/mL, 37°C, pH 7.5; for stability against proteolysis: 0-2 h
Experimental: The evaluation of the stability of CP20 and Ac-LP20 towards proteolysis was tested at a peptide concentration of 200 µM using pronase (commercially available mixture of proteases isolated from the extracellular fluid of Streptomyces griseus, 2.5 µg/mg). Another peptide was added to this analysis, namely LP20 (without N-terminal acetylation), as it is easier to synthesize and to also assess the influence of N-terminal acetylation on the stability of LP20. Each peptide was tested in the presence of the protease (5 µg/mL) at 37°C in a buffer solution (50 mM Tris, 10 mM CaCl2, 150 mM NaCl, 0.05 % (w/v) Brij 35, pH 7.5) and its stability monitored by liquid chromatography coupled to mass spectrometry (LC-MS) at different time intervals (t=0 min, 10 min, 30 min, 1 h, 2 h). To stop enzyme activity, a small amount of the solution (60 µL) was transferred to an HPLC vial containing 6 µL of a 10% TFA solution at these different time points.

[3] = Conformational studies based on circular dichroism; type: physicochemical
Experimental: Conformational studies based on circular dichroism were performed under different conditions, such as: • 10 mM phosphate buffer, pH 7 • MES buffer 10 mM, pH 6 • Buffer acetate 10 mM, pH 5 • Phosphate buffer 10 mM/TFE (1:1) • TFE (trifluoroethanol)
Conformational studies based on circular dichroism were performed under different conditions such as: • 10 mM phosphate buffer, pH7 • Phosphate buffer 10mM/TFE, pH7 (1:1) • TFE (trifluoroethanol)
Conformational studies based on circular dichroism were performed under different conditions, such as: • 10 mM phosphate buffer, pH7 • MES buffer 10 mM, pH6 • Buffer acetate 10 mM, pH5 • Phosphate buffer 10 mM/TFE, pH7 (1:1) • TFE (trifluoroethanol)
Conformational studies based on circular dichroism were performed under different conditions, such as: • 10 mM phosphate buffer, pH7 • 10mM phosphate buffer/TFE (1:1) • TFE (trifluoroethanol)

P. infestans [4] = type: cell-based; conditions: for PPI: solid medium, linear vs cyclic peptides (Figure 8); for PPI (%) ± dev. std (Solid medium): peptide 200 µM, PAM agar, mycelium plug, 3-4 days, vs untreated control
P. infestans [5] = type: in vivo; conditions: tomato (Solanum lycopersicum, cv. Marmande) leaf discs; co-inoculation with sporangia; 5-7 days; reference concentration 200 µM
Saccharomyces cerevisiae = experiment: Specificity: growth in liquid culture (OD620); type: cell-based; conditions: 200 µM; YEPD medium; measured hourly up to 5 h
Experimental: (§1) The specificity of antimicrobial molecules is a key aspect in their development, as good degrees of specificity result in the absence of toxicity to other organisms in the environment such as animals, plants, fungi, bacteria, yeasts, livestock and humans. Therefore, initial assays were carried out to assess the toxicity profiles of CP20 and CP32, similar to those reported in Colombo et al.. For this purpose, the two cyclic peptides were added at a concentration of 200 µM to liquid cultures of the following microorganism species: • (i) Agrobacterium tumefaciens GV3101, (ii) Escherichia coli DH5α and (iii) Saccharomyces cerevisiae. The culture media used were respectively Luria-Bertani (LB) for the bacterial cultures, while Yeast Extract Peptone Dextrose (YEPD) medium was used for S. cerevisiae. Growth was measured hourly (up to 5 h) using a spectrophotometer (OD620).

Escherichia coli DH5α = experiment: Specificity: growth in liquid culture (OD620); type: cell-based; conditions: 200 µM; LB medium; measured hourly up to 5 h
Experimental: as §1

P. infestans [6] = conditions: for PGI (%) ± dev. std (Liquid medium): peptide 200 µM, Pea Broth, sporangia, OD620, 72 h, vs untreated control
P. ultimum = type: cell-based, Pythium ultimum var. ultimum Trow; conditions: PDA agar, mycelium; mean ± standard deviation vs untreated control; concentration not given
pronase [7] = experiment: pronase (commercially available mixture of proteases isolated from the extracellular fluid of Streptomyces griseus, 2.5 µg/mg) in buffer solution (50 mM Tris, 10 mM CaCl2, 150 mM NaCl, 0.05 % (w/v) Br); conditions: 37°C, up to 2 h
[8] = pH 7-TFE: phosphate buffer 10 mM/TFE (1:1)
[9] = from PGI values at 0.02-200 µM, three-parameter logistic model

Compound: CSCC[C@H](NC(=O)[C@H](Cc1c[nH]c2ccccc12)NC(=O)[C@H](CCCNC(=N)N)NC(=O)CCNC(C)=O)C(=O)N[C@@H](CC(C)C)C(=O)N[C@H](C(=O)N[C@@H](Cc1ccc(O)cc1)C(=O)N[C@@H](CCCNC(=N)N)C(=O)N[C@@H](CCCNC(=N)N)C(N)=O)C(C)C [Ac-LP20, Ac-βA -R-W-M-L-V-Y-R-R-CONH2] (Ac-[βAla]RWMLVYRR-NH2)
- isoelectric point [1]: 12.4 pH
- net charge [1]: +3
- solubility in water [1]: good solubility in water
- time of total proteolysis of the peptide (pronase [2]): 10 min
- stability against proteolysis (pronase [2]): Low stability
- Disordered (%) ([3]; 10 mM phosphate buffer, pH 7): 37%
- Helixes (%) ([3]; 10 mM phosphate buffer, pH 7): 5%
- Sheets (%) ([3]; 10 mM phosphate buffer, pH 7): 36%
- Turns (%) ([3]; 10 mM phosphate buffer, pH 7): 22%
- Disordered (%) ([3]; MES buffer 10 mM, pH 6): 33%
- Helixes (%) ([3]; MES buffer 10 mM, pH 6): 6%
- Sheets (%) ([3]; MES buffer 10 mM, pH 6): 40%
- Turns (%) ([3]; MES buffer 10 mM, pH 6): 21%
- Disordered (%) ([3]; TFE (trifluoroethanol)): 31%
- Helixes (%) ([3]; TFE (trifluoroethanol)): 19%
- Sheets (%) ([3]; TFE (trifluoroethanol)): 27%
- Turns (%) ([3]; TFE (trifluoroethanol)): 23%
- Disordered (%) ([3]; acetate buffer 10 mM, pH 5): 36%
- Helixes (%) ([3]; acetate buffer 10 mM, pH 5): 7%
- Sheets (%) ([3]; acetate buffer 10 mM, pH 5): 35%
- Turns (%) ([3]; acetate buffer 10 mM, pH 5): 22%
- Disordered (%) [3, 8]: 29%
- Helixes (%) [3, 8]: 18%
- Sheets (%) [3, 8]: 29%
- Turns (%) [3, 8]: 24%
- PPI (%) mycelium (P. infestans [4]; Ala-scan of Ac-LP20 and CP20-Met-Ala, P. infestans mycelium in vitro): 78.80 ± 4.07%

Compound: CC(=O)NCCC(=O)NCC(=O)N[C@@H](CCCNC(=N)N)C(=O)N[C@@H](CC(C)C)C(=O)N[C@@H](CCCNC(=N)N)C(=O)N[C@@H](Cc1c[nH]c2ccccc12)C(=O)N[C@@H](CC(C)C)C(=O)N[C@@H](CCCNC(=N)N)C(=O)N[C@H](C(N)=O)C(C)C [Ac-LP32, Ac-βA -G-R-L-R-W-L-R-V-CONH2] (Ac-[βAla]GRLRWLRV-NH2)
- isoelectric point [1]: 14 pH
- net charge [1]: +3
- solubility in water [1]: good solubility in water
- time of total proteolysis of the peptide (pronase [2]): 10 min
- stability against proteolysis (pronase [2]): low stability
- Disordered (%) ([3]; 10 mM phosphate buffer, pH 7): 44%
- Helixes (%) ([3]; 10 mM phosphate buffer, pH 7): 5%
- Sheets (%) ([3]; 10 mM phosphate buffer, pH 7): 33%
- Turns (%) ([3]; 10 mM phosphate buffer, pH 7): 18%
- Disordered (%) ([3]; TFE (trifluoroethanol)): 51%
- Helixes (%) ([3]; TFE (trifluoroethanol)): 5%
- Sheets (%) ([3]; TFE (trifluoroethanol)): 30%
- Turns (%) ([3]; TFE (trifluoroethanol)): 14%
- Disordered (%) [3, 8]: 47%
- Helixes (%) [3, 8]: 5%
- Sheets (%) [3, 8]: 30%
- Turns (%) [3, 8]: 18%
- PPI (%) micelio (P. infestans [4]; Ala-scan of Ac-LP32, P. infestans mycelium in vitro): 70.23 ± 3.84%

Compound: CSCC[C@@H]1NC(=O)[C@H](Cc2c[nH]c3ccccc23)NC(=O)[C@H](CCCNC(=N)N)NC(=O)CCNC(=O)[C@H](CCCNC(=N)N)NC(=O)[C@H](CCCNC(=N)N)NC(=O)[C@H](Cc2ccc(O)cc2)NC(=O)[C@H](C(C)C)NC(=O)[C@H](CC(C)C)NC1=O [CP20, βA-R-W-M-L-V-Y-R-R] (cyclo(LVYRR[βAla]RWM))
- Percentage Protection Index for the leaf discs (PPI), reduction in symptoms (P. infestans [5]): 88.64%
- growth inhibition (OD620) (Saccharomyces cerevisiae): no growth inhibition
- bacterial growth (OD620) (Escherichia coli DH5α): no alteration in bacterial growth
- EC99 (P. infestans [6]; [9]): 68.37 µM
- PGI (%) ± dev. std (Liquid medium) (P. infestans [6]): 86.19 ± 8.66 (b) %
- time after which cleavage was observed in the presence of protease (pronase [2]): 2 h
- stability against proteolysis (pronase [2]): good stability against proteolysis
- PPI (%) ± Std. Dev. (P. infestans [4]; 200 µM, P. infestans mycelium, peptidomimetics): 92.39 ± 2.17 (a) %
- PPI (P. infestans [4]; 200 µM, P. infestans mycelium): 89.53%
- PPI (%) ± dev. std (Solid medium) (P. infestans [4]): 88.99 ± 7.56 (b) %

Compound: CC(C)C[C@@H]1NC(=O)[C@H](CCCNC(=N)N)NC(=O)CNC(=O)CCNC(=O)[C@H](C(C)C)NC(=O)[C@H](CCCNC(=N)N)NC(=O)[C@H](CC(C)C)NC(=O)[C@H](Cc2c[nH]c3ccccc23)NC(=O)[C@H](CCCNC(=N)N)NC1=O [CP32, βA-G-R-L-R-W-L-R-V] (cyclo(GRLRWLRV[βAla]))
- Percentage Protection Index for the leaf discs (PPI), reduction in symptoms (P. infestans [5]): 90.03%
- growth inhibition (OD620) (Saccharomyces cerevisiae): no growth inhibition
- bacterial growth (OD620) (Escherichia coli DH5α): no alteration in bacterial growth
- EC50 (P. infestans [6]; [9]): 16 µM
- EC99 (P. infestans [6]; [9]): 56.18 µM
- PGI (%) ± dev. std (Liquid medium) (P. infestans [6]): 90.61 ± 10.87 (b) %
- time of total proteolysis of the peptide (pronase [2]): 30 min
- stability against proteolysis (pronase [2]): more stable against proteolysis than its linear analogues
- PPI (P. infestans [4]; 200 µM, P. infestans mycelium): 87.44%
- PPI (%) ± dev. std (Solid medium) (P. infestans [4]): 87.93 ± 9.47 (b) %

Compound: COCC(=O)N(c1c(C)cccc1C)[C@H](C)C(=O)OC [Metalaxyl-M]
- P. ultimum (IPP - %) (P. ultimum): 100 ± 0 (a) %

Compound: Ac-[βAla]GRLRWLRV-NH2
- cleaved bond (pronase [7]): Trp-Leu7, 10 minutes later; also recorded: Leu4-Arg5, 10 min; also recorded: Arg5-Trp, 10 min; also recorded: Leu7-Arg8, 10 min; also recorded: Arg8-Val, 10 min

Compound: Ac-[βAla]RWMLVYRR-NH2
- cleaved bond (pronase [7]): Met4-Leu, first_seen, t0; also recorded: Arg2-Trp3, 10 min; also recorded: Trp3-Met4, 10 min

Compound: [βAla]GRLRWLRV [CP32]
- cleaved bond (pronase [7]): βAla-Gly, first_seen, After mixing protease with peptide solution; also recorded: Leu7-Arg8, first_seen, After mixing protease with peptide solution; also recorded: Arg8-Val; also recorded: Leu4-Arg5, 10 minutes; also recorded: Arg5-Trp, 10 minutes; also recorded: Trp-Leu7, 10 minutes

Compound: [βAla]GRLRWLRV [LP32]
- cleaved bond (pronase [7]): Trp-Leu7, first_seen, immediately, after mixing protease with peptide solution; also recorded: Leu4-Arg5, 10 min; also recorded: Arg5-Trp, 10 min; also recorded: Leu7-Arg8, 10 min; also recorded: Arg8-Val, 10 min

Compound: [βAla]RWMLVYRR [CP20]
- cleaved bond (pronase [7]): Arg8-Arg9, 2 hours; also recorded: Met4-Leu, 2 hours

Compound: [βAla]RWMLVYRR [LP20]
- cleaved bond (pronase [7]): Met4-Leu, first_seen, t0; also recorded: Arg2-Trp3, 10 min; also recorded: Trp3-Met4, 10 min
